Consider 16 compounds from patent publication US11634447B2 (priority 2012, dated 2023).

The first assay addresses bacterial strain LF82 binding to the glycoprotein BSA-(Mannose)3. The assay is described as follows: Bacterial Binding Assay (BBA). The class given is cell-based, Escherichia coli. Conditions: LF82/Luciferase strain binding to BSA-(Man)3 coated plates, luminescence; read-out: Bacterial Binding Assay IC50. The source says: The purpose of the Bacterial Binding Assay (BBA) is to determine the inhibition activity of
selective FimH antagonists on the bacterial strain LF82 binding to the glycoprotein BSA-(Mannose)3.
Below is a list of the Materials used to run the BBA are described below. • 1. LB broth: Supplier: Gibco, #10855 • 2. D-PBS: Supplier: Wisent, #311-425-CL • 3. LB agar plates • 4. 96-well black plate (high binding): Supplier: Costar, #3925 • 5. TopSeal™-A adhesive sealing films; Supplier PerkinElmer, #6005185 • 6. Carbonate-bicarbonate buffer pH 9.6 tablets, Supplier: Medicago, #09-8922-24 • 7. Water, Supplier: Gibco, #15230-162 • 8. Bovine serum albumin (BSA): Supplier: Sigma, #A-7888 • 9. (Man)3-BSA (α1-3, α1-6 Mannotriose-BSA, 1 mg), V-Labs, #NGP1336, lot #HGDX37-169-1 • 10. Tween 20: Supplier: Sigma, #P9416 • 11. Bright-Glo Luciferase Assay System: Supplier: Promega, #E2610 • 12. LF82/Luciferase strain: Invasive ability of an Escherichia coli strain isolated from the ileal mucosa of a patient with Crohn ? disease. Boudeau J, Glasser A L, Masseret E, Joly B, Darfeuille-Michaud A, Infect Immun. 1999, 67(9), 4499-509
Solutions and buffers used to run the BBA are described below. • 1. 0.04M carbonate-bicarbonate buffer (coating buffer) • 2. 40 μg/mL BSA-(Man)3: Dissolve 1 mg of (Man)3-BSA in 25 mL of water. • 3. 4000 μg/mL BSA • 4. 40 μg/mL BSA • 5. 1 μg/mL BSA-(Man)3: 150 μL of 40 μg/mL BSA-(Man)3+5.85 mL of 40 μg/mL BSA • 6. 0.5 μg/mL BSA-(Man)3 in 0.02M carbonate-bicarbonate buffer. • 7. 20 μg/mL BSA in 0.02M carbonate-bicarbonate buffer • 8. Blocking buffer (2% BSA/DPBS): 1 g of BSA in 50 mL D-PBS • 9. 2× binding buffer (0.2% BSA/D-PBS): 5 mL of blocking buffer+45 mL D-PBS. • 10. Washing buffer (D-PBS/0.01% Tween 20): 10 μL of Tween 20 in 100 mL D-PBS. • 11. 1× Bright-Glo Luciferase substrate: Dilute 1:1 the Bright-Glo Luciferase Assay System with D-PBS The experimental protocol to run the BBA is described below.
Overnight culture of LF82/Luciferase strain: Into two Falcon 50 mL tubes, add 20 mL of LB+20 μL of 50 mg/mL Kanamycin and inoculate with a loop from glycerol stock of the LF82/Luciferase strain. Incubate overnight at 37° C. with no shaking.
Glycoprotein coating of 96-well plates: Add 100 μL/well of 0.5-2 μg/mL BSA-(Man)3. 20 μg/mL BSA is used as the control background. Seal plate using an adhesive sealing film and incubate overnight at room temperature. Wash the 96-well plate three times with 150 μL/well of D-PBS, add 170 μL/well of blocking solution and incubate 45 min (minimum) at room temperature.
Preparation of bacterial suspension: Mix the two cultures tubes (40 mL) and perform a 1:10 dilution in LB (900 μl LB+100 μl culture. Measure optical density (OD) of the bacterial cultures. OD1 ˜5×10^8 cells/mL. Centrifuge LF82 culture for 20 min at 3500 rpm at room temperature. Re-suspend bacterial pellet in D-PBS and centrifuge again for 20 min at 3500 rpm. Re-suspend bacterial pellet in D-PBS to obtain a bacterial concentration of 2×10^9 bacteria/mL. Dilute 1/10 in D-PBS to obtain a final bacterial concentration of 2×10^8 bacteria/mL (=107 bacteria/50 μL). Perform 1/10 serial dilutions in LB of each bacterial suspension, plate 10 μL of dilutions on LB agar plates (final dilutions of 10^−7) and incubate overnight at 37° C. and count CFUs to determine the actual bacteria density in the assay.
Bacterial binding assay: Add 147 μL 2× binding buffer to compound plate (containing 3 μL of compound). After blocking step is performed (at least 45 min), wash plates three times with 200 μL/well of D-PBS. With a 100 μL multichannel manual pipettor, add 50 µL/well of compound diluted in 2× binding buffer. With a 100 μL multichannel manual pipettor, add 50 μL/well of bacterial suspension. Agitate at slow speed for 1 min and incubate 40-75 min at room temperature. Wash 5 times with 150 μL/well of washing buffer and then once with D-PBS. Add 100 μL/well of 1× Bright-Glo Luciferase substrate. […]
Consider `OC[C@H]1O[C@H](C#Cc2ccc(-c3ccc(C#C[C@H]4O[C@H](CO)[C@@H](O)[C@H](O)[C@@H]4O)s3)s2)[C@@H](O)[C@@H](O)[C@@H]1O` [Compound 128], for which the IC50 worked out at 22 nM.

The assay is the same for the next values; noted with them: read-out: Bacterial Binding Assay IC50, LF82/Luciferase strain binding to BSA-(Man)3 coated plates, luminescence.
With `N#Cc1cc(C#C[C@H]2O[C@H](CO)[C@@H](O)[C@H](O)[C@@H]2O)ccc1C#C[C@H]1O[C@H](CO)[C@@H](O)[C@H](O)[C@@H]1O` [Compound 101, 2,5-bis[2-[(2R,3S,4R,5S,6R)-3,4,5-trihydroxy-6-(hydroxymethyl)tetrahydropyran-2-yl]ethynyl]benzonitrile], the IC50 was found to be 21 nM. On the same count and under the same terms, as for `OCC(O)Cn1c2ccc(C#C[C@H]3O[C@H](CO)[C@@H](O)[C@H](O)[C@@H]3O)cc2c2cc(C#C[C@H]3O[C@H](CO)[C@@H](O)[C@H](O)[C@@H]3O)ccc21` (stereo partly drawn) [Compound 174, (2R,3S,4R,5S,6R)-2-[2-[9-(2,3-dihydroxypropyl)-6-[2-[(2R,3S,4R,5S,6R)-3,4,5-trihydroxy-6-(hydroxymethyl)tetrahydropyran-2-yl]ethynyl]carbazol-3-yl]ethynyl]-6-(hydroxymethyl)tetrahydropyran-3,4,5-triol], the figure is 4.7 nM; as for `Cc1cc(C#C[C@H]2O[C@H](CO)[C@@H](O)[C@H](O)[C@@H]2O)c(Cl)cc1C#C[C@H]1O[C@H](CO)[C@@H](O)[C@H](O)[C@@H]1O` [Compound 90, (2R,3S,4R,5S,6R)-2-[2-[2-chloro-5-methy1-4-[2-[(2R,3S,4R,5S,6R)-3,4,5-trihydroxy-6-(hydroxymethyl)tetrahydropyran-2-yl]ethynyl]phenyl]ethynyl]-6-(hydroxymethyl)tetrahydropyran-3,4,5-triol], 36 nM. On the same count and under the same terms, as for `OC[C@H]1O[C@H](C#Cc2ccc(C#C[C@H]3O[C@H](CO)[C@@H](O)[C@H](O)[C@@H]3O)c(F)c2)[C@@H](O)[C@@H](O)[C@@H]1O` [Compound 105, (2R,3S,4R,5S,6R)-2-[2-[3-fluoro-4-[2-[(2R,3S,4R,5S,6R)-3,4,5-trihydroxy-6-(hydroxymethyl)tetrahydropyran-2-yl]ethynyl]phenyl]ethynyl]-6-(hydroxymethyl)tetrahydropyran-3,4,5-triol], the figure is 46 nM; as for `O=C1CCCN1CCn1c2cc(C#C[C@H]3O[C@H](CO)[C@@H](O)[C@H](O)[C@@H]3O)ccc2c2ccc(C#C[C@H]3O[C@H](CO)[C@@H](O)[C@H](O)[C@@H]3O)cc21` [Compound 190, 1-[2-[2,7-bis[2-[(2R,3S,4R,5S,6R)-3,4,5-trihydroxy-6-(hydroxymethyl)tetrahydropyran-2-yl]ethynyl]carbazol-9-yl]ethyl]pyrrolidin-2-one], 1.1 nM; as for `CN1CCN(CCNC(=O)Cn2c3cc(C#C[C@H]4O[C@H](CO)[C@@H](O)[C@H](O)[C@@H]4O)ccc3c3ccc(C#C[C@H]4O[C@H](CO)[C@@H](O)[C@H](O)[C@@H]4O)cc32)CC1` [Compound 177, 2-[2,7-bis[2-[(2R,3S,4R,5S,6R)-3,4,5-trihydroxy-6-(hydroxymethyl)tetrahydropyran-2-yl]ethynyl]carbazol-9-yl]-N-[2-(4-methylpiperazin-1-yl)ethyl]acetamide], 0.66 nM.

As to `Cc1c(C#C[C@H]2O[C@H](CO)[C@@H](O)[C@H](O)[C@@H]2O)cccc1[C@H]1O[C@H](CO)[C@@H](O)[C@H](O)[C@@H]1O` [Compound 148], the IC50 turned out to be 130 nM. Same read-out and setting: then `COc1cc(C#C[C@H]2O[C@H](CO)[C@@H](O)[C@H](O)[C@@H]2O)c(OC)cc1C#C[C@H]1O[C@H](CO)[C@@H](O)[C@H](O)[C@@H]1O` [Compound 96, (2R,3S,4R,5S,6R)-2-[2-[2,5-dimethoxy-4-[2-[(2R,3S,4R,5S,6R)-3,4,5-trihydroxy-6-(hydroxymethyl)tetrahydropyran-2-yl]ethynyl]phenyl]ethynyl]-6-(hydroxymethyl)tetrahydropyran-3,4,5-triol], with 66 nM; and `Cc1cc(C#C[C@H]2O[C@H](CO)[C@@H](O)[C@H](O)[C@@H]2O)cc(C)c1C#C[C@H]1O[C@H](CO)[C@@H](O)[C@H](O)[C@@H]1O` [Compound 100, (2R,3S,4R,5S,6R)-2-[2-[3,5-dimethyl-4-[2-[(2R,3S,4R,5S,6R)-3,4,5-trihydroxy-6-(hydroxymethyl)tetrahydropyran-2-yl]ethynyl]phenyl]ethynyl]-6-(hydroxymethyl)tetrahydropyran-3,4,5-triol], with 28 nM; and `CC1(O)CCC2(CC1)c1cc(C#C[C@H]3O[C@H](CO)[C@@H](O)[C@H](O)[C@@H]3O)ccc1-c1ccc(C#C[C@H]3O[C@H](CO)[C@@H](O)[C@H](O)[C@@H]3O)cc12` [Compound 204], with 0.8 nM. Still for that read-out and setting: as for `CCC1(O)c2cc(C#C[C@H]3O[C@H](CO)[C@@H](O)[C@H](O)[C@@H]3O)ccc2-c2ccc(C#C[C@H]3O[C@H](CO)[C@@H](O)[C@H](O)[C@@H]3O)cc21` [Compound 166, (2R,3S,4R,5S,6R)-2-[2-[9-ethyl-9-hydroxy-7-[2-[(2R,3S,4R,5S,6R)-3,4,5-trihydroxy-6-(hydroxymethyl)tetrahydropyran-2-yl]ethynyl]fluoren-2-yl]ethynyl]-6-(hydroxymethyl)tetrahydropyran-3,4,5-triol], the figure is 3 nM; as for `OC[C@H]1O[C@H](c2ccc(-c3ccc(-c4ccc([C@H]5O[C@H](CO)[C@@H](O)[C@H](O)[C@@H]5O)cc4)cc3)cc2)[C@@H](O)[C@@H](O)[C@@H]1O` [Compound 65], 55 nM; as for `OC[C@H]1O[C@H](C#Cc2ccc3c(c2)C(O)c2cc(C#C[C@H]4O[C@H](CO)[C@@H](O)[C@H](O)[C@@H]4O)ccc2-3)[C@@H](O)[C@@H](O)[C@@H]1O` (stereo partly drawn) [Compound 195, (2R,3S,4R,5S,6R)-2-(hydroxymethyl)-6-[2-[9-hydroxy-7-[2-[(2R,3S,4R,5S,6R)-3,4,5-trihydroxy-6-(hydroxymethyl)tetrahydropyran-2-yl]ethynyl]-9H-fluoren-2-yl]ethynyl]tetrahydropyran-3,4,5-triol], 18 nM. On the same count and under the same terms, then `OC[C@H]1O[C@H](C#Cc2cc3sc(C#C[C@H]4O[C@H](CO)[C@@H](O)[C@H](O)[C@@H]4O)cc3s2)[C@@H](O)[C@@H](O)[C@@H]1O` [Compound 133], with 28 nM. As to `N#CC1(C(=O)c2c(C#C[C@H]3O[C@H](CO)[C@@H](O)[C@H](O)[C@@H]3O)ccc3c2C2(CCNCC2)c2cc(C#C[C@H]4O[C@H](CO)[C@@H](O)[C@H](O)[C@@H]4O)ccc2-3)CC1` [Compound 230, 1-[2,7-bis[2-[(2R,3S,4R,5S,6R)-3,4,5-trihydroxy-6-(hydroxymethyl)tetrahydropyran-2-yl]ethynyl]spiro[fluorene-9,4piperidine]-1carbonyl]cyclopropanecarbonitrile], the IC50 came to 0.16 nM.
